Reference: patent publication US8377691B2 (priority 2006, dated 2013)
Entries after “also recorded” stand apart in the source; their conditions may differ.

Test system: A/M2 VN1194
Format: biochemical

| SMILES | H+ transport across VLP membranes (fluorescence) |
| --- | --- |
| NC12CC3CC(CC(C3)C1)C2 [amantadine] | exerted no effect; also recorded: did not, however, influence |
| CC(N)C12CC3CC(CC(C3)C1)C2 (centres unmarked) [rimantadine] | exerted no effect |
